Assay results from US20240228572A1 (i2o Therapeutics, Inc., priority 2020, published 2024).
*1 amine or outer side, *2 acyl side, *3 side chain or, on linkers, in order; H or OH if unused. Where a SMILES comes first, the peptide text is derived from it. Bridges are numbered along the chain shown (N, C = ends). Side-chain parts run from the residue outwards. [ ]: non-standard residue; d: D form. The star is where a group is joined. C20 diacid = O=C(O)CCCCCCCCCCCCCCCCCCC(=O)*; γGlu = O=C(O)[C@H](CCC(=O)[*:2])N[*:1]; AEEA = NCCOCCOCC(=O)O; Aib = CC(C)(N)C(=O)O

Biological target: T1, human GLP-1 receptor (GLP-1R) (Homo sapiens, UniProt P43220)
T1 construct: expressed in transfected cells
Assay: cAMP accumulation assay, CHO-K1 cells stably expressing human GLP-1R
Assay type: cell-based
Conditions: cAMP accumulation, mean pEC50, Table 10
Procedure: In the presence of the non-specific cAMP/cGMP phosphodiesterase inhibitor, 3-isobutyl-1-methylxanthine (IBMX), accumulating cAMP can be measured in vitro using common detection methods. Thus, it is possible to estimate an in vitro potency (pEC50) for peptides activating each of these receptors using fit dose-response curves for cAMP accumulation.
CHO-K1 cells stably expressing human GLP-1R (Genebank accession #NM_002062) were grown in 90% F12-K media supplemented with 10% FBS and 250 μg/ml G418.
On day 1, CHO-K1 cells were plated at 1.5 million cells per T75 flask in 90% F12-K media supplemented with 10% FBS. On day 3 cells were transfected with 40 mcg of each expression plasmid using Lipofectamine 2000 transfection reagent. On day 5, cells were dispensed at 1000 cells per well in white 384-well OptiPlates in 5 mcL of assay buffer consisting of 1×HBSS, 5 mM HEPES, 0.5 mM IBMX, and 0.1% casein.
Peptides were serially diluted 4-fold in assay buffer to final concentrations ranging from 1×10^−9 M to 9.5×10^−16 M. Two assay controls consisting of 50 mcM forskolin (cAMP system maximum) or assay buffer only (cAMP system minimum) were also prepared. Five microliters of each peptide-concentration, or assay control, was added to triplicate wells and incubated for thirty minutes at room temperature. During this incubation step a 4× europium labelled cAMP tracer solution and a 4× Ulight®-anti-cAMP solution (consisting of an anti-cAMP monoclonal antibody labelled with Ulight™ dye) was prepared according to the manufacturer's protocol (PerkinElmer LANCE Ultra cAMP kit). Following this incubation, 5 mcL europium labelled cAMP and 5 mcL Ulight anti-cAMP antibody was added to each well. The plate was covered to prevent evaporation and incubated for 60 minutes at room temperature in the dark. Plates were read on an Envision fluorescent plate reader (PerkinElmer).
Test values were first normalized to the system maximum and system minimum averaged values in Excel using the formula: (test value−system min average)/(system max average -system min average)*100. Normalized test values represent a baseline corrected percentage of the system maximum cAMP response induced by forskolin. Data from up to 3 replicate tests were analyzed for each peptide. Potency values were estimated using GraphPad Prism software (v7.04) by fitting data to a 4-parameter logistic curve model: Y=Bottom+(Top−Bottom)/(1+10^((LogEC50−X))). The Hill slope was constrained to 1.0. EC50 values were converted to pEC50 values using the formula: pEC50=−Log (EC50).

T1 sequence (P43220 24-463): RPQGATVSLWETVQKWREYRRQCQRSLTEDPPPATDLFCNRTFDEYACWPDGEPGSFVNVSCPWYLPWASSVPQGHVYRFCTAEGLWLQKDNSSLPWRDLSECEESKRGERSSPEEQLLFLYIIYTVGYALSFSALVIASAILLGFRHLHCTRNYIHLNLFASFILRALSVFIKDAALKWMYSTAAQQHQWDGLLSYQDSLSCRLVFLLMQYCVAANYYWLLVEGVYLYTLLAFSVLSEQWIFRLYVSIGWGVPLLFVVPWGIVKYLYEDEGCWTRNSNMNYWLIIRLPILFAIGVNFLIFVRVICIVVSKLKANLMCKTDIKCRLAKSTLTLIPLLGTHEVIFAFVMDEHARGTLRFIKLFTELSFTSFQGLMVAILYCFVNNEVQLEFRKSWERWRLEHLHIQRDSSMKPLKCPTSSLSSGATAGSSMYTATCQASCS

Structure (SMILES) | EC50
CC(C)C[C@H](NC(=O)[C@H](Cc1ccc(O)cc1)NC(=O)[C@H](CCCCN)NC(=O)[C@H](CO)NC(=O)[C@H](Cc1ccc(O)cc1)NC(=O)[C@H](CC(=O)O)NC(=O)[C@H](CO)NC(=O)[C@@H](NC(=O)[C@H](Cc1ccccc1)NC(=O)[C@@H](NC(=O)CNC(=O)[C@H](Cc1c[nH]cn1)NC(=O)[C@H](CO)NC(=O)[C@@H](N)Cc1ccc(O)cc1)[C@@H](C)O)[C@@H](C)O)C(=O)N[C@@H](CC(=O)O)C(=O)N[C@@H](CCCCNC(=O)CC[C@H](NC(=O)CC[C@H](NC(=O)COCCOCCNC(=O)CCCCCCCCCCCCCCCCCCC(=O)O)C(=O)O)C(=O)O)C(=O)N[C@@H](CCCCN)C(=O)N[C@@H](Cc1ccc(O)cc1)C(=O)N[C@@H](C)C(=O)N[C@@H](CO)C(=O)N[C@@H](CCC(=O)O)C(=O)N[C@@H](Cc1ccccc1)C(=O)N[C@H](C(=O)NC(C)(C)C(=O)N[C@@H](Cc1c[nH]c2ccccc12)C(=O)N[C@@H](CC(C)C)C(=O)N[C@@H](CCC(=O)O)C(=O)N[C@@H](CO)C(=O)N[C@@H](CCC(=O)O)C(=O)N1CCC[C@H]1C(=O)N[C@@H](CO)C(=O)N[C@@H](CO)C(=O)NCC(=O)N[C@@H](C)C(=O)N1CCC[C@H]1C(=O)N1CCC[C@H]1C(=O)N1CCC[C@H]1C(=O)N[C@@H](CO)C(=O)O)C(C)C [Compound A24] (H-YSHGTFTSDYSKYLDK([γGlu-γGlu-AEEA-C20 diacid])KYASEFV[Aib]WLESEPSSGAPPPS-OH; N-terminus assumed) | > 1 nM
CC(C)C[C@@H]1NC(=O)[C@H](Cc2c[nH]c3ccccc23)NC(=O)[C@@H](NC(=O)[C@@H](NC(=O)[C@H](Cc2ccccc2)NC(=O)[C@H](CCCCNC(=O)CC[C@H](NC(=O)CC[C@H](NC(=O)COCCOCCNC(=O)CCCCCCCCCCCCCCCCCCC(=O)O)C(=O)O)C(=O)O)NC(=O)[C@H](CCC(N)=O)NC(=O)[C@H](C)NC(=O)[C@H](Cc2ccc(O)cc2)NC(=O)[C@H](CCCCN)NC(=O)C(C)(C)NC(=O)[C@H](CC(=O)O)NC(=O)[C@H](CC(C)C)NC(=O)[C@H](Cc2ccc(O)cc2)NC(=O)[C@H](CCCCN)NC(=O)[C@H](CO)NC(=O)[C@H](Cc2ccc(O)cc2)NC(=O)[C@H](CC(=O)O)NC(=O)[C@H](CO)NC(=O)[C@@H](NC(=O)[C@H](Cc2ccccc2)NC(=O)[C@@H](NC(=O)CNC(=O)[C@H](Cc2c[nH]cn2)NC(=O)[C@H](CO)NC(=O)[C@@H](N)Cc2ccc(O)cc2)[C@@H](C)O)[C@@H](C)O)C(C)C)CCCCNC(=O)C[C@@H](C(=O)N[C@@H](CCC(=O)O)C(=O)N2CCC[C@H]2C(=O)N[C@@H](CO)C(=O)N[C@@H](CO)C(=O)NCC(=O)N[C@@H](C)C(=O)N2CCC[C@H]2C(=O)N2CCC[C@H]2C(=O)N2CCC[C@H]2C(=O)N[C@@H](CO)C(=O)O)NC(=O)[C@H](CCC(=O)O)NC1=O [Compound A30] (H-YSHGTFTSDYSKYLD[Aib]KYAQK([γGlu-γGlu-AEEA-C20 diacid])FVKWLEDEPSSGAPPPS-OH; lactam 24-28) | > 1 nM
